Consider 65 compounds from publication PMC5733478, “A Non-imaging High Throughput Approach to Chemical Library Screening at the Unmodified Adenosine-A3 Receptor in Living Cells” (Frontiers in Pharmacology, 2017).

Where a name gives a salt, the structure may show the parent alone. Where a SMILES comes first, the peptide text is derived from it. The star is where a group is joined. Cbz = O=C(OCc1ccccc1)*

One assay addresses T1, human A3AR (Homo sapiens, UniProt P0DMS8).
T1 construct: expressed in transfected cells
T1 sequence (P0DMS8 1-318): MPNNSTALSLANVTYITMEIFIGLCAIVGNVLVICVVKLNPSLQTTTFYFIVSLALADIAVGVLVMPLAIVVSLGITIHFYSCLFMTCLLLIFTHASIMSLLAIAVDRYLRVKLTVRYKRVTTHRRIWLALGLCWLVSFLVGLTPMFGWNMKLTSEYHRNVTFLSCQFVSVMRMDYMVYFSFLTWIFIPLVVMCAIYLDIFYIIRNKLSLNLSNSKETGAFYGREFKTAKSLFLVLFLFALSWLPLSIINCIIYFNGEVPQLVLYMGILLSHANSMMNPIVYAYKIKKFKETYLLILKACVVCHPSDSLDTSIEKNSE
As to the kind of experiment: LOPAC library primary screen: single concentration (10 μM) inhibition of 25 nM CA200645 binding, PHERAstar FS.
Details: not given
In the case of `COc1ccc2c(c1)c(CC(=O)O)c(C)n2C(=O)c1ccc(Cl)cc1` [Indomethacin], the “% 25 nM CA200645 binding” value was 72.9 ± 18.3%.
Regarding `NC(=O)CI` [Iodoacetamide], the “% 25 nM CA200645 binding” value is on record as 101.9 ± 8.2%.
The same measure, in the same setting: as for `CC(C)NC(C)Cc1ccc(I)cc1` (centres unmarked) [Iofetamine hydrochloride], the figure is 100.8 ± 7.1%.
As to `CC(C)[N+]1(C)[C@@H]2CC[C@H]1C[C@@H](OC(=O)C(CO)c1ccccc1)C2` (some centres unmarked) [Ipratropium bromide], the “% 25 nM CA200645 binding” value came out at 106.7 ± 26.2%.
Take `CC(C)NNC(=O)c1ccncc1.O=P(O)(O)O` [Iproniazid phosphate]: the “% 25 nM CA200645 binding” value worked out at 103.0 ± 5.6%.
Still for that read-out and setting: as for `O=C(/C=C/c1ccc(O)cc1)c1ccc(O)cc1O` [Isoliquiritigenin], the figure is 88.0 ± 9.1%.
On to `O=C(O)C1CCNCC1` [Isonipecotic acid], for which the “% 25 nM CA200645 binding” value is 88.5 ± 19.5%.
Regarding `CCC(NC(C)C)C(O)c1ccc(O)c(O)c1.CS(=O)(=O)O` (centres unmarked) [Isotharine mesylate], the “% 25 nM CA200645 binding” value was 102.1 ± 6.6%.
Take `Nc1nc2[nH]c(=O)cnc2c(=O)[nH]1` [Isoxanthopterin]: the “% 25 nM CA200645 binding” value is on record as 94.7 ± 15.0%.
Turning to `COc1cc(SC)ccc1C(=O)N1CCC(Cc2ccccc2)CC1` [JX401], the “% 25 nM CA200645 binding” value is listed as 84.6 ± 8.9%.
Still for that read-out and setting: as for `S=c1[nH]c(-c2ccccc2)cn1-c1ccccc1` [KRM-III], the figure is 70.4 ± 12.2%.
Same read-out and setting: as for `O=C(c1ccc(F)cc1)C1CCN(CCn2c(=O)[nH]c3ccccc3c2=O)CC1` [Ketanserin tartrate], the figure is 100.1 ± 15.2%; as for `CC(=O)N1CCN(c2ccc(OCC3COC(Cn4ccnc4)(c4ccc(Cl)cc4Cl)O3)cc2)CC1` (centres unmarked) [Ketoconazole], 98.9 ± 9.0%.
In the case of `NC(CO)(CO)CO.O=C(c1ccccc1)c1ccc2n1CCC2C(=O)O` (centres unmarked) [Ketorolac tris salt], the “% 25 nM CA200645 binding” value was 93.7 ± 13.0%.
As for `CN1CCC(=C2c3ccccc3CC(=O)c3sccc32)CC1` [Ketotifen fumarate], the “% 25 nM CA200645 binding” value amounted to 93.8 ± 4.0%.
Same read-out and setting: as for `NC[C@H](O)c1ccc(O)c(O)c1.O=C(O)C(O)C(O)C(=O)O` [L(-)-Norepinephrine bitartrate], the figure is 97.7 ± 6.2%; as for `N[C@@H](CCCC(=O)O)C(=O)O` [L-2-aminoadipic acid], 101.5 ± 9.7%.
For the compound `N[C@@H](Cc1ccc(O)c(O)c1)C(=O)O` [L-3,4-Dihydroxyphenylalanine], the “% 25 nM CA200645 binding” value is 99.1 ± 9.5%.
On the same count and under the same terms, as for `Cl.c1ccc(CN2CCC3(CCCc4ccccc43)CC2)cc1` [L-687,384 hydrochloride], the figure is 108.6 ± 4.6%; as for `Ic1ccccc1CNC1C2CCN(CC2)C1C(c1ccccc1)c1ccccc1.O=C(O)C(=O)O` [L-703,606 oxalate salt hydrate], 93.3 ± 4.4%.
With `Cl.Clc1ccc(N2CCN(Cc3c[nH]c4ncccc34)CC2)cc1` [L-745,870 hydrochloride], the “% 25 nM CA200645 binding” value was 105.7 ± 4.1%.
Take `N=C(N)NCCC[C@H](N)C(=O)O` [L-Arginine]: the “% 25 nM CA200645 binding” value was 97.1 ± 5.5%.
As to `N[C@@H](CC(=O)O)C(=O)O` [L-Aspartic acid], the “% 25 nM CA200645 binding” value is given as 99.3 ± 3.7%.
With `N[C@H](C(=O)O)[C@H](Cc1ccccc1)C(=O)O` [L-Beta-threo-benzyl-aspartate], the “% 25 nM CA200645 binding” value is 95.9 ± 9.2%.
As for `CCCCS(=N)(=O)CC[C@H](N)C(=O)O` (stereo partly drawn) [L-Buthionine-sulfoximine], the “% 25 nM CA200645 binding” value is recorded as 98.1 ± 5.3%.
With `NC(N)=NOCC[C@H](N)C(=O)O` [L-Canavanine], the “% 25 nM CA200645 binding” value is 101.1 ± 4.7%.
Regarding `N[C@H]1CON=C1O` [L-Cycloserine], the “% 25 nM CA200645 binding” value was determined as 98.0 ± 1.4%.
Consider `N[C@@H](CS(=O)O)C(=O)O` [L-Cysteinesulfinic Acid], for which the “% 25 nM CA200645 binding” value came out at 83.6 ± 21.3%.
`Cl.N[C@@H](CCC(=O)O)C(=O)O` [L-Glutamic acid hydrochloride]: the “% 25 nM CA200645 binding” value was 113.0 ± 19.3%.
As to `O=C(O)CCC(C(=O)O)N1C(=O)c2ccccc2C1=O` [L-Glutamic acid, N-phthaloyl-], the “% 25 nM CA200645 binding” value was 89.4 ± 32.8%.
Consider `Cl.N[C@@H](Cc1cnc[nH]1)C(=O)O` [L-Histidine hydrochloride], for which the “% 25 nM CA200645 binding” value was 100.4 ± 6.4%.
Turning to `N[C@@H](Cn1ccc(=O)c(O)c1)C(=O)O` [L-Mimosine from Koa hoale seeds], the “% 25 nM CA200645 binding” value is 106.5 ± 13.7%.
With `CC(=N)NCCCC[C@H](N)C(=O)O.Cl` [L-N6-(1-Iminoethyl)lysine hydrochloride], the “% 25 nM CA200645 binding” value is listed as 96.4 ± 1.7%.
Take `C=CC[C@H](N)C(=O)O` [L-allylglycine]: the “% 25 nM CA200645 binding” value amounted to 98.5 ± 1.7%.
`C[C@](N)(Cc1ccc(O)c(O)c1)C(=O)O` [L-alpha-Methyl DOPA]: the “% 25 nM CA200645 binding” value is given as 92.6 ± 21.6%.
The same measure, in the same setting: as for `O=C(O)[C@@H]1CCN1` [L-azetidine-2-carboxylic acid], the figure is 100.7 ± 4.1%; as for `Cl.O=C(CCCCCN1CCN(c2ccccc2-c2ccccc2)CC1)NC1CCCc2ccccc21` (centres unmarked) [LP 12 hydrochloride hydrate], 93.7 ± 9.5%; as for `Cl.O=c1cc(N2CCOCC2)oc2c(-c3ccccc3)cccc12` [LY-294,002 hydrochloride], 94.6 ± 11.0%.
As for `CC(CCc1ccccc1)NCC(O)c1ccc(O)c(C(N)=O)c1` (centres unmarked) [Labetalol hydrochloride], the “% 25 nM CA200645 binding” value is given as 97.5 ± 13.9%.
Regarding `Nc1nnc(-c2cccc(Cl)c2Cl)c(N)n1` [Lamotrigine], the “% 25 nM CA200645 binding” value is listed as 93.6 ± 9.2%.
Consider `Cc1c(OCC(F)(F)F)ccnc1C[S+]([O-])c1nc2ccccc2[nH]1` (centres unmarked) [Lansoprazole], for which the “% 25 nM CA200645 binding” value is recorded as 100.3 ± 13.0%.
As to `Cc1oncc1C(=O)Nc1ccc(C(F)(F)F)cc1` [Leflunomide], the “% 25 nM CA200645 binding” value was 100.1 ± 5.3%.
Same read-out and setting: as for `COC(=O)C1=C(C)NC(C)=C(C(=O)OC(C)(C)CN(C)CCC(c2ccccc2)c2ccccc2)C1c1cccc([N+](=O)[O-])c1.COC(=O)C1=C(C)NC(C)=C(C(=O)OC(C)(C)CN(C)CCC(c2ccccc2)c2ccccc2)C1c1cccc([N+](=O)[O-])c1.Cl.Cl.O` (centres unmarked) [Lercanidipine hydrochloride hemihydrate], the figure is 82.9 ± 16.7%; as for `C=CCN1CC[C@]23CCCC[C@H]2[C@H]1Cc1ccc(O)cc13` [Levallorphan tartrate], 105.9 ± 7.3%.
Take `CC[C@@H](C(N)=O)N1CCCC1=O` [Levetiracetam]: the “% 25 nM CA200645 binding” value came out at 102.2 ± 9.6%.
In the case of `CC(=O)NC[C@H]1CN(c2ccc(N3CCOCC3)c(F)c2)C(=O)O1` [Linezolid], the “% 25 nM CA200645 binding” value is reported as 100.5 ± 2.1%.
On the same count and under the same terms, as for `[Cl-].[Li+]` [Lithium Chloride], the figure is 99.9 ± 5.2%.
Regarding `CCn1cc(C(=O)O)c(=O)c2cc(F)c(N3CCNC(C)C3)c(F)c21` (centres unmarked) [Lomefloxacin hydrochloride], the “% 25 nM CA200645 binding” value is 96.9 ± 10.1%.
For the compound `O=C(O)c1nn(Cc2ccc(Cl)cc2Cl)c2ccccc12` [Lonidamine], the “% 25 nM CA200645 binding” value came to 94.6 ± 7.2%.
As for `CCOC(=O)N1CCC(=C2c3ccc(Cl)cc3CCc3cccnc32)CC1` [Loratadine], the “% 25 nM CA200645 binding” value is given as 85.0 ± 1.8%.
Turning to `CN1CCN(C2=Nc3ccccc3Oc3ccc(Cl)cc32)CC1` [Loxapine succinate], the “% 25 nM CA200645 binding” value stood at 80.2 ± 12.7%.
For `O=C(O)/C(=C/c1c(C(=O)O)[nH]c2cc(Cl)cc(Cl)c12)c1ccccc1` [MDL 105,519], the “% 25 nM CA200645 binding” value is recorded as 101.6 ± 19.9%.
For the compound `CC(C)[C@H](NC(=O)OCc1ccccc1)C(=O)N[C@H](C=O)Cc1ccccc1` [MDL 28170] (Cbz-Val-Phe-aldehyde), the “% 25 nM CA200645 binding” value was 96.0 ± 2.8%.
With `CC[N+](CC)(CC)CCOc1ccc(/C=C/c2ccccc2)cc1` [MG 624], the “% 25 nM CA200645 binding” value turned out to be 106.9 ± 11.5%.
`C1CNCCN1.COc1cc(C(O)CO)ccc1O.COc1cc(C(O)CO)ccc1O` (centres unmarked) [MHPG piperazine]: the “% 25 nM CA200645 binding” value is given as 95.1 ± 7.6%.
Take `COc1cc(C(O)CO)ccc1OS(=O)(=O)[O-].[K+]` (centres unmarked) [MHPG sulfate potassium]: the “% 25 nM CA200645 binding” value came out at 102.8 ± 6.8%.
As to `CC(C)c1ccc2c(c1)c(SC(C)(C)C)c(CC(C)(C)C(=O)O)n2Cc1ccc(Cl)cc1` [MK-886], the “% 25 nM CA200645 binding” value came out at 98.7 ± 12.2%.

Still in this assay, the particulars now being: % of control wells (1% DMSO and 25 nM CA200645); compounds at 10 µM; […]; mean ± SD, three experiments in duplicate.
Turning to `O=C1Nc2ccccc2/C1=C1/Nc2ccccc2/C1=N\O` [Indirubin-3'-oxime], the “% 25 nM CA200645 binding” value is recorded as 50.6 ± 24.7%.

The assay is the same for the next values; noted with them: % of control wells (1% DMSO and 25 nM CA200645); compounds at 10 µM; whole live cells expressing the A3AR; mean ± SD, three experiments in duplicate.
In the case of `O=C(O)C1=CCNCC1` [Isoguvacine hydrochloride], the “% 25 nM CA200645 binding” value was determined as 87.4 ± 16.5%.
As for `O=C(O)c1cc(=O)c2ccccc2[nH]1` [Kynurenic acid], the “% 25 nM CA200645 binding” value stood at 83.5 ± 10.7%.
`NC(=O)CC[C@H](N)C(=O)O` [L-Glutamine]: the “% 25 nM CA200645 binding” value came to 99.9 ± 14.1%.
As for `N[C@@H](Cc1c[nH]c2ccccc12)C(=O)O` [L-Tryptophan], the “% 25 nM CA200645 binding” value is 100.0 ± 3.7%.
`CCCCCN(CCCCC)C(=O)C(CCC(=O)O)NC(=O)c1ccc(Cl)c(Cl)c1` (centres unmarked) [Lorglumide sodium]: the “% 25 nM CA200645 binding” value is reported as 99.4 ± 5.5%.

Staying with this assay, now noted: compounds tested at 10 µM; % of control wells (1% DMSO and 25 nM CA200645); whole live cells expressing the A3AR; mean ± SD, three experiments in duplicate.
Consider `O=C1N(c2ccccc2)c2ccccc2C1(Cc1ccncc1)Cc1ccncc1` [Linopirdine], for which the “% 25 nM CA200645 binding” value was found to be 105.3 ± 3.6%.
As for `CCCCN(CCCC)CC(O)c1cc(Cl)cc2c1-c1ccc(Cl)cc1/C2=C/c1ccc(Cl)cc1` (centres unmarked) [Lumefantrine], the “% 25 nM CA200645 binding” value turned out to be 94.4 ± 10.9%.
